The subject of assay [1] is RAW264.7. Briefly: Inhibition of LPS/IFN gamma stimulated RAW264.7 cells determined by MTS assay. Format: functional. Conditions: Mus musculus. On the technique in general: Formazan colour is commonly taken as a measure of viable cells.
Assay [2] has as its system RAW264.7. The assay is described as follows: Suppression of nitric oxide production in the LPS/IFN gamma stimulated RAW264.7 cells. Format: functional, cell-based. Conditions: Mus musculus.

SMILES strings stand for the structures.

In assay [1], `CC[n+]1c(/C=C2\C=Cc3ccc(C)cc3N2CCCS(=O)(=O)O)sc2ccccc21` registered a 50% growth inhibitory concentration (GI50) of more than 10 µM. Moreover, in assay [2], the IC50 turned out to be 27.2 µM.
Taken in the same sequence, the figures for `CC[n+]1c(/C=C2\Sc3ccccc3N2CCC(=O)O)sc2ccccc21` were more than 10 µM and 11.5 µM.
As to `CC[n+]1c(/C=C(\C)Nc2ccccc2)sc2ccccc21`, the GI50 in assay [1] is more than 10 µM. The IC50 in assay [2] stood at 44.8 µM.
On the same counts, the results for `CC[n+]1c(/C=C(\C)NCc2ccccc2)sc2ccccc21` are more than 10 µM and 7.61 µM.
Taken in the same sequence, the figures for `CCC(/C=C1\Sc2ccccc2N1CCCS(=O)(=O)O)=C\c1sc2ccccc2[n+]1CC` were more than 10 µM and 5.78 µM.
On the same counts, the results for `CC[n+]1c(/C=C/c2ccc(N(C)C)cc2)sc2cc(NC(C)=O)ccc21` are more than 10 µM and 3.31 µM.
In assay [1], `CCN1/C(=C/C(N)=C/c2sc3ccccc3[n+]2CC)Sc2ccccc21` came in with a 50% growth inhibitory concentration (GI50) of more than 10 µM. In assay [2], half-maximal inhibition (IC50) was put at 0.847 µM.
On the same counts, the results for `CCN1C(=Cc2sc3ccccc3[n+]2C)C=Cc2cccc(C)c21` are more than 10 µM and 0.318 µM.
On the same counts, the results for `CC[n+]1c(/C=C/c2ccc(N(C)C)cc2)sc2cc(C)ccc21` are more than 10 µM and 2.27 µM.
As to `CCC(/C=C1\Sc2ccc(Cl)cc2N1CC)=C\c1sc2ccc(Cl)cc2[n+]1CC`, in assay [1], growth was halved (GI50) at 9 µM. For the same molecule, the concentration for half-maximal inhibition (IC50) in assay [2] was 0.741 µM.
Consider `CCN1C(=Cc2sc3ccccc3[n+]2C)C=Cc2ccc(C)cc21`, for which the GI50 in assay [1] was more than 10 µM. The molecule further came in with a half-maximal inhibitory concentration (IC50) in assay [2] of 0.444 µM.
In assay [1], `CCN1/C(=C/C(C)=C/c2sc3ccccc3[n+]2CC)Sc2ccccc21` returned a GI50 of more than 10 µM. This molecule returned a concentration for half-maximal inhibition (IC50) in assay [2] of 0.198 µM.
Molecule `CCC(/C=C1\Sc2ccccc2N1CC)=C\c1sc2ccccc2[n+]1CC` came in with a GI50 in assay [1] of 5.5 µM. Also, the IC50 in assay [2] is 0.062 µM.
In assay [1], `CC/C(=C\c1sc2ccc(OC)cc2[n+]1CCCS(=O)(=O)[O-])SC` had a GI50 of more than 10 µM. In addition, 66.1 µM corresponded to half-maximal inhibition in assay [2] (IC50).
Consider `NC(=C\c1sc2ccccc2[n+]1CCCS(=O)(=O)O)/C=C1\Sc2ccccc2N1CCCS(=O)(=O)O`, for which the GI50 in assay [1] was more than 10 µM. In assay [2], this molecule gave a concentration for half-maximal inhibition (IC50) of 51.9 µM.
`CN1/C(=C/c2sc3ccccc3[n+]2C)Sc2ccccc21` showed a 50% growth inhibitory concentration (GI50) in assay [1] of more than 10 µM. The same molecule registered a concentration for half-maximal inhibition (IC50) in assay [2] of 4.69 µM.
`CC[n+]1c(/C=C(/C)SC)sc2ccc(OC)cc21`: the concentration for 50% growth inhibition (GI50) in assay [1] is more than 10 µM. This molecule also registered an IC50 in assay [2] of 18.4 µM.
On the same counts, the results for `CC/C(=C/c1sc2ccc(OC)cc2[n+]1CC)SC` are more than 10 µM and 3.64 µM.
Consider `CCN1/C(=C/c2sc3ccccc3[n+]2CC)C=Cc2ccc(C)cc21`, for which, in assay [1], the 50% growth inhibitory concentration (GI50) is more than 10 µM. The same molecule registered a concentration for half-maximal inhibition (IC50) in assay [2] of 0.183 µM.
In turn, `CCCC[n+]1c(C=C2C=Cc3ccccc3N2CC)sc2ccccc21` displayed a GI50 in assay [1] of 5.5 µM. In assay [2], the IC50 came out at 0.215 µM.
As for `CCN1/C(=C/C(=C/c2sc3ccccc3[n+]2CC)OC)Sc2ccccc21`, the concentration for 50% growth inhibition (GI50) in assay [1] is more than 10 µM. Moreover, inhibition in assay [2] was half-maximal at 0.461 µM (IC50).
Taken in the same sequence, the figures for `CN(C)c1ccc(/C=C/c2sc3ccc4ccccc4c3[n+]2C)cc1` were more than 10 µM and 2.16 µM.
Taken in the same sequence, the figures for `CC[n+]1c(/C=C2\C=Cc3ccc(C)cc3N2C)sc2ccccc21` were more than 10 µM and 0.253 µM.
Take `CC[n+]1c(/C=C2\C=Cc3cc(C)ccc3N2C)sc2ccccc21`: the concentration for 50% growth inhibition (GI50) in assay [1] was more than 10 µM. This molecule had an IC50 in assay [2] of 0.178 µM.
On to `CCC(/C=C1\Sc2ccc(Cl)cc2N1C)=C\c1sc2ccc(Cl)cc2[n+]1C`, for which the GI50 in assay [1] was 7.9 µM. The IC50 in assay [2] came to 0.402 µM.
In assay [1], `CCN1/C(=C/C(=C/c2sc3ccccc3[n+]2CC)SC)Sc2ccccc21` had a concentration for 50% growth inhibition (GI50) of more than 10 µM. For the same molecule, the half-inhibitory concentration (IC50) in assay [2] came to 0.637 µM.
In assay [1], `CCN1/C(=C/c2sc3ccccc3[n+]2CC)Sc2ccccc21` came in with a 50% growth inhibitory concentration (GI50) of more than 10 µM. Moreover, inhibition in assay [2] was half-maximal at 0.403 µM (IC50).
Taken in the same sequence, the figures for `CCC(/C=C1\Sc2ccccc2N1C)=C\c1sc2ccccc2[n+]1C` were 5.5 µM and 0.055 µM.
For the molecule `CCN1C(=Cc2sc3ccc(OC)cc3[n+]2CC)C=Cc2ccccc21`, in assay [1], it took 9.3 µM to inhibit growth by half (GI50). For the same molecule, in assay [2], the IC50 stood at 1.06 µM.
In assay [1], `CCN1/C(=C/c2sc3cc(OC)c(OC)cc3[n+]2CC)C=Cc2ccccc21` displayed a 50% growth inhibitory concentration (GI50) of more than 10 µM. Besides, inhibition in assay [2] was half-maximal at 0.684 µM (IC50).
On the same counts, the results for `CCN1/C(=C/c2sc3ccc(Br)cc3[n+]2CC)C=Cc2ccccc21` are more than 10 µM and 0.241 µM.
`CN1/C(=C/C(=C/c2sc3ccccc3[n+]2C)C2CCC2)Sc2ccccc21`: growth in assay [1] was halved (GI50) at 6.5 µM. In addition, half-maximal inhibition in assay [2] (IC50) was put at 0.662 µM.
With `CC[n+]1c(/C=C(/C)SC)sc2ccccc21`, the GI50 in assay [1] is more than 10 µM. The IC50 in assay [2] came to 24.2 µM.
Taken in the same sequence, the figures for `COc1ccc2sc(/C=C(\C)SC)[n+](CCCS(=O)(=O)[O-])c2c1` were more than 10 µM and 69.5 µM.
With `CC[n+]1c(C=C2Sc3ccccc3N2CCO)sc2ccccc21`, in assay [1], the GI50 is more than 10 µM. In assay [2], this molecule displayed an IC50 of 10.7 µM.
Taken in the same sequence, the figures for `CN(C)c1ccc(/C=C/c2sc3ccccc3[n+]2C)cc1` were more than 10 µM and 4.8 µM.
`CC[n+]1c(/C=C/c2ccc(N(C)C)cc2)sc2ccccc21` showed a GI50 in assay [1] of more than 10 µM. Further, the 50% inhibitory concentration (IC50) in assay [2] is 4.94 µM.
The molecule `CCN1/C(=C/c2sc3ccc(I)cc3[n+]2CC)C=Cc2ccccc21` returned a 50% growth inhibitory concentration (GI50) in assay [1] of more than 10 µM. Also, the IC50 in assay [2] is 0.259 µM.
Take `CCN1/C(=C/c2sc3ccccc3[n+]2CC)C=Cc2ccccc21`: the GI50 in assay [1] was more than 10 µM. In assay [2], this molecule gave a half-maximal inhibitory concentration (IC50) of 0.244 µM.
Taken in the same sequence, the figures for `CC[n+]1c(/C=C/c2ccc(N(C)C)cc2)sc2ccc(C(=O)OC)cc21` were more than 10 µM and 10.8 µM.
Taken in the same sequence, the figures for `CC(/C=C1\Sc2ccccc2N1CCO)=C\c1sc2ccccc2[n+]1CCO` were more than 10 µM and 20.2 µM.
On the same counts, the results for `CCN1/C(=C/c2sc3cc(C)c(C)cc3[n+]2CC)C=Cc2ccccc21` are 5.8 µM and 0.258 µM.
For the molecule `O=S(=O)(O)CCCN1/C(=C/c2sc3ccccc3[n+]2CCCS(=O)(=O)O)C=Cc2ccccc21`, the GI50 in assay [1] is more than 10 µM. For the same molecule, the IC50 in assay [2] was 64.6 µM.
On the same counts, the results for `CCN1/C(=C/c2sc3ccccc3[n+]2CC)C=Cc2cc(NC(C)=O)ccc21` are more than 10 µM and 13.3 µM.
With `CCCN1/C(=C/c2sc3ccccc3[n+]2CC)C=Cc2ccccc21`, the concentration for 50% growth inhibition (GI50) in assay [1] is more than 10 µM. Also, the half-inhibitory concentration (IC50) in assay [2] was determined as 0.288 µM.
Taken in the same sequence, the figures for `CCN1/C(=C/c2sc3ccccc3[n+]2C)C=Cc2ccccc21` were more than 10 µM and 0.216 µM.
As to `CC[n+]1c(/C=C/c2ccc(N(C)C)cc2)sc2ccc(C)cc21`, in assay [1], the concentration for 50% growth inhibition (GI50) was more than 10 µM. The molecule further returned an IC50 in assay [2] of 2.33 µM.
Consider `CCN1/C(=C/c2sc3ccc(C)cc3[n+]2CC)C=Cc2ccccc21`, for which the GI50 in assay [1] is more than 10 µM. In assay [2], this molecule showed an IC50 of 0.295 µM.
On the same counts, the results for `CC/C(=C\c1sc2ccc(OC)cc2[n+]1CC)SC` are more than 10 µM and 3.99 µM.

In general, GI50 refers to the concentration at which growth is held to half of that of the control. Higher therefore signals lower sensitivity of the cells. Usually IC50 stands for the concentration at which inhibition is half-maximal. High values mean weaker potency in that assay, low ones greater potency in that assay.

The record behind these values is ChEMBL document CHEMBL1143526, “Benzothiazolium compounds: novel classes of inhibitors that suppress the nitric oxide production in RAW264.7 cells stimulated by LPS/IFNgamma” (Bioorg Med Chem Lett, 2005).
